Calls of active or inactive are those of the source. No cut-off for these calls is given here.
How the values were obtained:
[1] = target: Serine/threonine-protein kinase Chk2 (Homo sapiens) (UniProt O96017); test: Inhibition of CHEK2 (unknown origin) at 1 uM by selectscreen kinase profiling assay in presence of ATP
[2] = target: Dual specificity protein kinase CLK1 (Homo sapiens) (UniProt P49759); test: Inhibition of CLK1 (unknown origin) at 1 uM by selectscreen kinase profiling assay in presence of ATP
[3] = target: Casein kinase I isoform gamma-1 (Homo sapiens) (UniProt Q9HCP0); test: Inhibition of CK1gamma1 (unknown origin) at 1 uM by selectscreen kinase profiling assay in presence of ATP
[4] = target: G protein-coupled receptor kinase 5 (Homo sapiens) (UniProt P34947); test: Inhibition of GRK5 (unknown origin) at 1 uM by selectscreen kinase profiling assay in presence of ATP
[5] = target: Inhibitor of nuclear factor kappa-B kinase subunit beta (Homo sapiens) (UniProt O14920); test: Inhibition of IKKbeta (unknown origin) at 1 uM by selectscreen kinase profiling assay in presence of ATP
[6] = target: Interleukin-1 receptor-associated kinase 4 (Homo sapiens) (UniProt Q9NWZ3); test: Inhibition of IRAK4 (unknown origin) at 1 uM by selectscreen kinase profiling assay in presence of ATP
[7] = target: Tyrosine-protein kinase JAK1 (Homo sapiens) (UniProt P23458); test: Inhibition of JAK1 (unknown origin) at 1 uM by selectscreen kinase profiling assay in presence of ATP
[8] = target: Mitogen-activated protein kinase 3 (Homo sapiens) (UniProt P27361); test: Inhibition of ERK1 (unknown origin) at 1 uM by selectscreen kinase profiling assay in presence of ATP
[9] = target: Serine/threonine-protein kinase PAK 6 (Homo sapiens) (UniProt Q9NQU5); test: Inhibition of PAK6 (unknown origin) at 1 uM by selectscreen kinase profiling assay in presence of ATP
[10] = species on record: Homo sapiens; test: Inhibition of PKCbeta I (unknown origin) at 1 uM by selectscreen kinase profiling assay in presence of ATP
[11] = target: Inhibitor of nuclear factor kappa-B kinase subunit alpha (Homo sapiens) (UniProt O15111); test: Inhibition of IKKalpha (unknown origin) at 1 uM by selectscreen kinase profiling assay in presence of ATP
[12] = target: Phosphatidylinositol 4-kinase beta (Homo sapiens) (UniProt Q9UBF8); test: Inhibition of PI4Kbeta (unknown origin) at 1 uM by selectscreen kinase profiling assay in presence of ATP
[13] = target: PI3-kinase p110-alpha/p85-alpha (Homo sapiens) (UniProt P27986+P42336); test: Inhibition of PIK3CA/PIK3R1 (unknown origin) at 1 uM by selectscreen kinase profiling assay in presence of ATP; assay type: protein-complex assay
[14] = tested on: RAF proto-oncogene serine/threonine-protein kinase (Homo sapiens), P04049 [Y340D,Y341D]; test: Inhibition of RAF1 Y340D/Y341D double mutant (unknown origin) at 1 uM by selectscreen kinase profiling assay in presence of ATP
[15] = target: Glycogen synthase kinase-3 beta (Homo sapiens, UniProt P49841); test: Inhibition of GSK3beta (unknown origin) in presence of 10 uM ATP incubated for 1 hr by Z'Lyte assay
[16] = target: T1, 3-phosphoinositide-dependent protein kinase 1 (Homo sapiens, UniProt O15530); test: Inhibition of PDK1 (unknown origin) in presence of 25 uM ATP incubated for 1 hr by Z'Lyte assay
T1 sequence (O15530 whole entry): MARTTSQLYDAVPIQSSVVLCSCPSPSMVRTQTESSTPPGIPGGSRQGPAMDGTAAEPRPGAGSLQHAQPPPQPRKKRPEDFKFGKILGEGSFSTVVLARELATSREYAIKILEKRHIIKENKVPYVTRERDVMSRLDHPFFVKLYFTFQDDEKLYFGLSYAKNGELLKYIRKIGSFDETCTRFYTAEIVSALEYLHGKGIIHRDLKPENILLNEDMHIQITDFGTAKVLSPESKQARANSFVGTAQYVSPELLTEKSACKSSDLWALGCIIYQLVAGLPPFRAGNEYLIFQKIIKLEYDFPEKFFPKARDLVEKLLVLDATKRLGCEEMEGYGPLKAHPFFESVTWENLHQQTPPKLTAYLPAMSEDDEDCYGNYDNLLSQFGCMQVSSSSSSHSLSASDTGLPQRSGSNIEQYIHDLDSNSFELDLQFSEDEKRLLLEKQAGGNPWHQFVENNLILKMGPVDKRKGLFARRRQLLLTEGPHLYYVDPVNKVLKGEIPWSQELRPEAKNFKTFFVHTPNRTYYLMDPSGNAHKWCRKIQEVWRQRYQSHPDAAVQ

[17] = Induction of apoptosis in human GSC derived from ANGM-CSS cells assessed as live cells at 1 uM after 7 days by annexin V-FITC/7-AAD dual staining based cell analysis (reference value: 91.88%); assay type: functional
[18] = Cell cycle arrest in human GSC derived from ANGM-CSS cells assessed as accumulation at G0/G1 phase at 1 uM after 7 days by based fluorescent reagent based cell analysis (reference value: 71.4%); assay type: functional
[19] = tested on: ANGM-CSS; test: Effect on human GSC morphology derived from ANGM-CSS cells assessed as reduction in area occupied by floating spheres at 1 uM after 7 days by microscopic analysis; assay type: functional, cell-based
[20] = tested on: ANGM-CSS; test: Induction of human GSC differentiation derived from ANGM-CSS cells assessed as down regulation of nestin mRNA expression at 1 uM after 7 days by RT-PCR analysis; assay type: functional, cell-based
[21] = tested on: ANGM-CSS; test: Reduction of neurosphere formation in human GSC derived from ANGM-CSS cells assessed as decrease in number and diameter of newly generated neurospheres at 1 uM after 9 days by microscopic analysis; assay type: functional, cell-based
[22] = target: Phosphatidylinositol 4,5-bisphosphate 3-kinase catalytic subunit gamma isoform (Homo sapiens) (UniProt P48736); test: Inhibition of PIK3Cgamma (unknown origin) at 1 uM by selectscreen kinase profiling assay in presence of ATP
[23] = tested on: ASPC1; test: Cytotoxicity against human AsPC1 cells assessed as cell viability 10 uM after 72 hrs by cell counting analysis relative to control; assay type: functional
[24] = Antiproliferative activity against human U118MG cells assessed as inhibition of cell growth after 96 hrs by WST1 assay; assay type: functional; conditions: U-118-MG
[25] = Induction of apoptosis in human ANGM-CSS cells assessed as live cells at 1 uM after 7 days by annexin V-FITC/7-AAD dual staining based cell analysis (reference value: 92.21%); assay type: functional
[26] = Induction of apoptosis in human ANGM-CSS cells assessed as dead cells at 1 uM after 7 days by annexin V-FITC/7-AAD dual staining based cell analysis (reference value: 2.28%); assay type: functional
[27] = Induction of apoptosis in human ANGM-CSS cells assessed as early apoptotic cells at 1 uM after 7 days by annexin V-FITC/7-AAD dual staining based cell analysis (reference value: 2.12%); assay type: functional
[28] = Cell cycle arrest in human ANGM-CSS cells assessed as accumulation at G2/M phase at 1 uM after 7 days by based fluorescent reagent based cell analysis (reference value: 23.8%); assay type: functional

Phosphatidylinositol 4-kinase beta (Homo sapiens), sequence (Q9UBF8 2-816 limits assumed): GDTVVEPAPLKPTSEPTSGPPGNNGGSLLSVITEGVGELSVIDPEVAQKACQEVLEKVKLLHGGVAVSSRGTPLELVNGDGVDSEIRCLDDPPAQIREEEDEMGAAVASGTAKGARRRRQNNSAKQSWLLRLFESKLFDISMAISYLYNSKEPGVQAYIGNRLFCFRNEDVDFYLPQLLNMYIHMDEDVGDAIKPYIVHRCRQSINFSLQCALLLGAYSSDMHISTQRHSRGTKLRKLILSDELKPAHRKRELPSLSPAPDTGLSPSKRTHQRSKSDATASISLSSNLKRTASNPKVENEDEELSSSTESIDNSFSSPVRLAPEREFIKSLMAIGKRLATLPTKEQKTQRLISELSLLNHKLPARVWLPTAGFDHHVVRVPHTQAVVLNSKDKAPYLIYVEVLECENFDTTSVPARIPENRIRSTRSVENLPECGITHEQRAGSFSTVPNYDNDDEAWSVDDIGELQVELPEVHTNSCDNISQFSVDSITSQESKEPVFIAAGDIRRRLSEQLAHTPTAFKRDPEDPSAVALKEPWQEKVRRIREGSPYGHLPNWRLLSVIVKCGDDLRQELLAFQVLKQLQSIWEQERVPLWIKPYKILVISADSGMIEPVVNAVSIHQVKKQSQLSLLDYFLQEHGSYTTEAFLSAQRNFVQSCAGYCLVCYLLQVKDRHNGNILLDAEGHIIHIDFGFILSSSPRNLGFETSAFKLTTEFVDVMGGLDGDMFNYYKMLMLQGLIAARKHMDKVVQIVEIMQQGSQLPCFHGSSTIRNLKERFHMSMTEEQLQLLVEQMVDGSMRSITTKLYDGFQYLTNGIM
Inhibitor of nuclear factor kappa-B kinase subunit alpha (Homo sapiens), sequence (O15111 whole entry): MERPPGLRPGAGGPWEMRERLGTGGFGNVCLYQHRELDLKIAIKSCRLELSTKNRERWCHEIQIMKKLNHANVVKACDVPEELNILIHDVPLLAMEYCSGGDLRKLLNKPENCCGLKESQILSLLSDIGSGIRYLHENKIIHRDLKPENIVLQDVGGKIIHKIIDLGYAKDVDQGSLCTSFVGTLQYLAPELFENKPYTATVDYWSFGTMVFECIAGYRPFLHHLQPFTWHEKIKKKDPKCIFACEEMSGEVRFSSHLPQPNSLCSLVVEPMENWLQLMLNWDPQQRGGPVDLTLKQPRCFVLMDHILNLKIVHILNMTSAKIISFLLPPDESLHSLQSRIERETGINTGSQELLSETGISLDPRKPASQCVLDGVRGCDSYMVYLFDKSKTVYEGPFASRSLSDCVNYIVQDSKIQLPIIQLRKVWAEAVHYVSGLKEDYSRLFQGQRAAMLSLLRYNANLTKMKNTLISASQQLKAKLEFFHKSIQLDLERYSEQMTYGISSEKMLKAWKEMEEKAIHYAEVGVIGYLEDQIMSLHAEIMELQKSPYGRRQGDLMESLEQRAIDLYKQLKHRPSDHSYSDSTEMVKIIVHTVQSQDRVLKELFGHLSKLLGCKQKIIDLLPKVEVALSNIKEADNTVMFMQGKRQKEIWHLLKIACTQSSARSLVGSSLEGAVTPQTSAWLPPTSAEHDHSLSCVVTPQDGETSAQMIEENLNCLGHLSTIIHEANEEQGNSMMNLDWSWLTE
Mitogen-activated protein kinase 3 (Homo sapiens), sequence (P27361 whole entry): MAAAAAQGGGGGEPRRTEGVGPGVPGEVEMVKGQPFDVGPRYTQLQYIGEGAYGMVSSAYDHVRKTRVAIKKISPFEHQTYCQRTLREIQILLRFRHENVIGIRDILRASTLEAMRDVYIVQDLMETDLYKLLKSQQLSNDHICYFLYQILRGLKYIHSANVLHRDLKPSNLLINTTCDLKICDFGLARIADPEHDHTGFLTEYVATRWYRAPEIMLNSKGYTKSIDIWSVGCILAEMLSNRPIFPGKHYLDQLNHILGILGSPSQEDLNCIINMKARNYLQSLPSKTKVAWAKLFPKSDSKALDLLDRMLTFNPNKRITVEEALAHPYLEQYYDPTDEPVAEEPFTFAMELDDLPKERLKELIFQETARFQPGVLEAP
RAF proto-oncogene serine/threonine-protein kinase (Homo sapiens), P04049 [Y340D,Y341D], sequence (P04049 whole entry Y340D/Y341D): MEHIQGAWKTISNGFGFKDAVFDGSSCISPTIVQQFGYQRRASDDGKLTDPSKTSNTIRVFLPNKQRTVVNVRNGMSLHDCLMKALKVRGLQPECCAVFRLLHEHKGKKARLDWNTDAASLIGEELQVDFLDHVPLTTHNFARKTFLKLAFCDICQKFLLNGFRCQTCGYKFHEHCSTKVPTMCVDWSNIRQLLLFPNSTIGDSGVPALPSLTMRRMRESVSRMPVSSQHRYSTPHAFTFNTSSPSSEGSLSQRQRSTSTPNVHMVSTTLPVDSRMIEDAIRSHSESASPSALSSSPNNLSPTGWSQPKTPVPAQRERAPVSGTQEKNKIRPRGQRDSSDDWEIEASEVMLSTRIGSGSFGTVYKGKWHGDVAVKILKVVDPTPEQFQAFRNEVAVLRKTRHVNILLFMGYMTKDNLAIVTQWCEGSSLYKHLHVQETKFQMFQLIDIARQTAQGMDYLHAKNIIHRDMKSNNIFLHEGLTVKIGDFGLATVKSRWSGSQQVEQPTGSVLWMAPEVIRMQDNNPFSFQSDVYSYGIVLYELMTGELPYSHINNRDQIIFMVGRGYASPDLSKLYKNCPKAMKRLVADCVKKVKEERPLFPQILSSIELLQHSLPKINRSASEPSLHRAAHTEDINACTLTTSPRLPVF
Inhibitor of nuclear factor kappa-B kinase subunit beta (Homo sapiens), sequence (O14920 whole entry): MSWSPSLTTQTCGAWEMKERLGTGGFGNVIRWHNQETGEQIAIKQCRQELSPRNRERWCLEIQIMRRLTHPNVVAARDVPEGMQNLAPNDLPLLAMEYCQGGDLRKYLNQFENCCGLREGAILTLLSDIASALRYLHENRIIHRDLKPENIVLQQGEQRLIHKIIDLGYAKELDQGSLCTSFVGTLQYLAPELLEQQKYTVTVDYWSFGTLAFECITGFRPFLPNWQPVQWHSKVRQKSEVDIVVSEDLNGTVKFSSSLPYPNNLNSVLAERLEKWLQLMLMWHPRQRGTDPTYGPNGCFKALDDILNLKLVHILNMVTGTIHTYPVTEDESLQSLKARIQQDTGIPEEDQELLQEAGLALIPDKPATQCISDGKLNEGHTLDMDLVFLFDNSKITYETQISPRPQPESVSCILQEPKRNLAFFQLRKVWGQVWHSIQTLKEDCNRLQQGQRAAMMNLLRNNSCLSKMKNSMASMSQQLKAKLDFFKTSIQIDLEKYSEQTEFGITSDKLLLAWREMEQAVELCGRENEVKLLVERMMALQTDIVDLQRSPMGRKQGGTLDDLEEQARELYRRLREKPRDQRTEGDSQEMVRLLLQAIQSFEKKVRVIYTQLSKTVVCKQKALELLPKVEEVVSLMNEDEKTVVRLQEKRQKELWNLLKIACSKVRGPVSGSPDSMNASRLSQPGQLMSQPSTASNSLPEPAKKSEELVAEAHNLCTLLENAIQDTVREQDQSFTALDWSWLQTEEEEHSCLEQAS
Casein kinase I isoform gamma-1 (Homo sapiens), sequence (Q9HCP0 whole entry, looked up, canonical isoform): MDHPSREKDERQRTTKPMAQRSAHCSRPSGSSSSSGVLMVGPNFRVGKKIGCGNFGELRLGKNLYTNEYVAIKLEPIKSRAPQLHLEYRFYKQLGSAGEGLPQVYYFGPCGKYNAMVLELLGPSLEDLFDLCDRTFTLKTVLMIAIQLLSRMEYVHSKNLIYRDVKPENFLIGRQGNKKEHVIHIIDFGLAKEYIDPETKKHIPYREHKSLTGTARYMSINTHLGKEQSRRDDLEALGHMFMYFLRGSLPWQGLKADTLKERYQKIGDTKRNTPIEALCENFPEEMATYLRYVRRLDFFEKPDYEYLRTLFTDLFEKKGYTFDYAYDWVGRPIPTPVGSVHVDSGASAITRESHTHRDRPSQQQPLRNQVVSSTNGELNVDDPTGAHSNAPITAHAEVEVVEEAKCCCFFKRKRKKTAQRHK
Dual specificity protein kinase CLK1 (Homo sapiens), sequence (P49759 whole entry, looked up, canonical isoform): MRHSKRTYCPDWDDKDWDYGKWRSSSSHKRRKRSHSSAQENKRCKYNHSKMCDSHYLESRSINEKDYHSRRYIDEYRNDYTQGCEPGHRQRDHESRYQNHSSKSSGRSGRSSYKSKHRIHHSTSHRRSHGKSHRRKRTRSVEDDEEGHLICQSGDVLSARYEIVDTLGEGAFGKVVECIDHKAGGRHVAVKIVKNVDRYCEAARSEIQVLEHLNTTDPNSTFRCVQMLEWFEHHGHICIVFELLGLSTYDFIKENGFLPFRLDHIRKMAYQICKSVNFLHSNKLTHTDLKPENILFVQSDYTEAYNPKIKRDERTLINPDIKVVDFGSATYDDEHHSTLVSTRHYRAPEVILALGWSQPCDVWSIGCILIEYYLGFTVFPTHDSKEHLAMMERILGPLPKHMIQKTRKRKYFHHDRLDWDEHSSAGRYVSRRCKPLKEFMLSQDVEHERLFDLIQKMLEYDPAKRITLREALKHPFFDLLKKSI
Glycogen synthase kinase-3 beta, sequence (P49841 whole entry): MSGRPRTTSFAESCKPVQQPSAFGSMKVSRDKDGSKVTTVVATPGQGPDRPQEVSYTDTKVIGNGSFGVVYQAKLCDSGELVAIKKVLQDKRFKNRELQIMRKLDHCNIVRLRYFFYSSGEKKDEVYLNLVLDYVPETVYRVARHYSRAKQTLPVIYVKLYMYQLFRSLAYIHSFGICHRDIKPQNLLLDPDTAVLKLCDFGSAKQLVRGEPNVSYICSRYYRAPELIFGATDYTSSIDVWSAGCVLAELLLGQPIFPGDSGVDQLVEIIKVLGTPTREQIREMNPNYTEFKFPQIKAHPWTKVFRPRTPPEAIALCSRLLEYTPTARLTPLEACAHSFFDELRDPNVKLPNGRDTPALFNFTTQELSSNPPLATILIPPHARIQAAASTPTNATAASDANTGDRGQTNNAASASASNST

Q: Which results are given for COc1cc2c(cc1OC)CN(CC(=O)Nc1ccc3c(c1)/C(=C/c1cnc[nH]1)C(=O)N3)CC2?
A: inhibition [1]: 24%; inhibition [2]: 8%; inhibition [3]: -4%; inhibition [4]: 10%; inhibition [5]: 6%; inhibition [6]: 5%; inhibition [7]: -1%; inhibition [8]: 37%; inhibition [9]: 2%; inhibition [10]: -6%; inhibition [11]: 26%; inhibition [12]: 5%; inhibition [13]: -6%; inhibition [14]: 25%; IC50 [15]: 0.272 µM; IC50 [16]: 0.998 µM; Activity [17]: 81.32%; Activity [18]: 69%; Activity [19]: Active; Activity [20]: Active; Activity [21]: Active; inhibition [22]: 5%; Activity [23]: 68.14%; GI50 [24]: 29.9 µM; Activity [25]: 79.63%; Activity [26]: 1.74%; Activity [27]: 6.77%; Activity [28]: 17.2%

From ChEMBL document CHEMBL3734692, “Design and synthesis of 2-oxindole based multi-targeted inhibitors of PDK1/Akt signaling pathway for the treatment of glioblastoma multiforme” (Eur J Med Chem, 2015)
